Measurements: a melting point compilation (Tetko et al.; mined from patent text by program, amines drawn as free bases though some values may be those of a salt)

Work on `CC(C)(C)C(=O)Nc1ccc(-c2ccncc2)cc1` yielded a melting point of 274 to 279 °C.
Work on `ClC(=NNc1ccccc1)c1ccc(Cl)cc1Cl` yielded a melting point of 88.5 to 89.5 °C.
`CCCCCCCCCNC(C)C(=O)O` (stereo not given) gave a melting point of 264 °C.
`COc1ccnc(C(=O)c2[nH]c3cc(Cl)ccc3c2N)c1` showed a melting point of 195 to 196 °C.
`CCN(CC)C(=O)SC1(C(=O)N(CC)CC)C=CC=NC1F` (stereo not given) gave a melting point of 87 to 88 °C.
With `CCN(CC)CC(O)CNC(=O)c1c(OC)c2ccccc2n1-c1ccccc1` (stereo not given) the melting point was 148 to 150 °C.
`COc1ccc(CC(=O)c2cc(OC)c(OC)cc2C)cc1OC` gave a melting point of 115 °C.
Work on `CCn1nc(-c2ccccc2)c(-c2csc(-c3ccc(OC)cc3)n2)c(Nc2cccnc2)c1=O` yielded a melting point of 201 to 202 °C.
Work on `COc1cc(OC)cc(C(=O)NCCCSc2ccncc2)c1` yielded a melting point of 110 to 111 °C.
Work on `Cc1cc(C(C)N(O)C(N)=O)ccc1Cl` (stereo not given) yielded a melting point of 129 to 131 °C.
Work on `FC(F)(F)c1ccc(C2=CCC(N3CCN(Cc4ccccc4)CC3)CC2)cc1` (stereo not given) yielded a melting point of 115 to 116 °C.
Compound `C=C(CC(=O)c1ccc(Cl)c(Cl)c1)C(=O)O` has a melting point of 156 to 157 °C.
`COc1cc(Cl)cc(OC(=O)c2cc3cc(CCl)ccc3oc2=O)c1` gave a melting point of 184 to 185 °C.
`N#Cc1cc(Oc2ccc(Cl)cc2)ccc1[N+](=O)[O-]` gave a melting point of 120 to 122 °C.
`COC(=O)c1[nH]c2c(Cl)ccc(Cl)c2c1C` gave a melting point of 110 to 111 °C.
In the case of `CC(CO)CCCC(C)C1CCC2C3CC=C4CCCC(O)C4(C)C3CCC12C` (stereo not given), the melting point was 158 to 160 °C.
Work on `COc1ccc(OCc2ccccn2)cc1/C=C/c1cc(/C=C/c2c[nH]c3ccccc23)n[nH]1` yielded a melting point of 233 to 238 °C.
`CNc1ncnc(N2CCc3ccccc3CC2)c1[N+](=O)[O-]` showed a melting point of 144 to 146 °C.
With `CCC(=CC(CNC(=O)c1ccc(C)nc1)=NO)C(C)[N+](=O)[O-]` (stereo not given) the melting point was 150 to 151 °C.
`Cc1cc(-c2cc(CN3CCN(C)CC3)c(=O)n(Cc3ccccc3Cl)n2)ccc1F` showed a melting point of 150 to 151 °C.
With `CC(C)(C)OC(=O)[C@@H]1CSC(C2CCCCC2)N1C(=O)CNC(=O)Nc1cccc(CC(=O)O)c1` (stereo not given in full) the melting point was 115 °C.
`O=c1c(Cc2ccccc2)c(O)c2cccc3c2n1C(c1ccccc1)C3` (stereo not given) gave a melting point of 252 to 254 °C.
Compound `O=C1NC(=S)SC1=Cc1ccnc2ccccc12` has a melting point of 325 to 328 °C.
Compound `CCc1nc(/C=C/c2cn(-c3ccccc3)nc2OCc2ccc(OCc3nc(-c4ccc(CC(=O)O)cc4)oc3C)c(OC)c2)cs1` has a melting point of 123 to 124 °C.
`O=P(O)(O)C(O)(Cc1c[nH]cn1)P(=O)(O)O` gave a melting point of over 290 °C.
`COC(=O)C(CN(c1ccccc1)c1ccccn1)N(C(=O)OC(C)(C)C)C(=O)OC(C)(C)C` (stereo not given) showed a melting point of 103 °C.
Compound `COc1ccc(Cn2c(=O)[nH]c3nccnc3c2=O)cc1` has a melting point of 233 to 234 °C.
`CCCCCCNc1nc(-c2ccc(F)cc2)c(-c2ccc(S(C)(=O)=O)cc2)s1` showed a melting point of 161 to 162 °C.
In the case of `Cc1cc(O)n2nc(S(=O)(=O)O)nc2n1`, the melting point was over 300 °C.
`CSc1cc2cc(C)ccc2cc1C=O` showed a melting point of 117 to 118 °C.
Work on `O=C(Cl)N1CC(Oc2ccc(Cl)cc2)C1` yielded a melting point of 78 to 80 °C.
For `CC(=O)Nc1ccc(C=CC(=O)C2C(=O)OC(=O)C(C(C)=O)=C2O)cc1` (stereo not given), the melting point was 230 to 231 °C.
Work on `CC(=O)NC[C@H]1CN(c2ccc(N3CCC(=O)N(C)CC3)c(F)c2)C(=O)O1` yielded a melting point of 203 to 204 °C.
With `NSc1nc(N)nc2nc[nH]c12` the melting point was over 250 °C.
For `CCOC(=O)C1=C(C)NC(N=CCN(C)C)=C(C(=O)OCC)C1c1cccc([N+](=O)[O-])c1` (stereo not given), the melting point was 172 °C.
Compound `CCCCCCCCCCCCc1ccsc1-c1ccc2c(c1)c(=O)c1cc3c(cc12)c(=O)c1cc(-c2sccc2CCCCCCCCCCCC)ccc13` has a melting point of 152 to 153 °C.
`O=C1OCc2c1oc1c(F)cccc1c2=O` gave a melting point of 164 °C.
For `COc1nccc2c1COC2=O`, the melting point was 90 °C.
For `N#CCCNC(=O)c1n[nH]cc1NC(=O)c1ccc(C(F)(F)F)cc1`, the melting point was 245 to 246 °C.
In the case of `O=c1cnn(-c2cc(Cl)c(Cc3ccc(Cl)cc3)c(Cl)c2)c(=O)[nH]1`, the melting point was 175 to 176 °C.
With `CC(O)c1cn(C2CCc3c(F)cc(F)cc3C2)c(=S)[nH]1` (stereo not given) the melting point was 210 to 211 °C.
With `N#Cc1ccccc1CNC(=O)C1Cc2ccccc2N1S(=O)(=O)c1ccc(-c2cccc(C(F)(F)F)c2)cc1` (stereo not given) the melting point was 70 °C.
With `CCOC(=O)c1c(C)[nH]c2ccc(OC[C@@H](O)CN=[N+]=[N-])cc12` the melting point was 75 to 77 °C.
Work on `O=C(Nc1ccc(C(F)(F)F)cc1)NC1CCOCC1` yielded a melting point of 196 to 198 °C.
In the case of `CCN1c2ncccc2C(=O)N(C)c2ccc(-c3cccn3C(C)=O)nc21`, the melting point was 106 to 108 °C.
Compound `O=[N+]([O-])c1ccc(Br)c(SC(F)(F)F)c1` has a melting point of 118 °C.
Work on `Cc1[nH]cnc1/C=C1\CCCc2c(c3ccccc3n2C)C1=O` yielded a melting point of 230 to 232 °C.
Compound `COC(=N)c1ccc(-c2ccccc2[N+](=O)[O-])o1` has a melting point of 107 to 108 °C.
With `CCOC(=O)c1cc2c(cn1)[nH]c1ccc(S(=O)(=O)N(C)C)cc12` the melting point was 310 to 311 °C.
`C=CC(O)C1OC(C)(C)OC1C(O)CO` (stereo not given) gave a melting point of 73 to 74 °C.
`CCCC(CCC)NC(=O)Nc1ccc(Cl)cc1` gave a melting point of 135 to 136 °C.
Work on `N#CCc1ccc(-c2coc3cc(O)c(O)cc3c2=O)cc1` yielded a melting point of 258 to 260 °C.
Work on `CN1CCC(=C2c3ccccc3C=Cc3ccc(C(=O)OCN4C(=O)CN(C)C4=O)cc32)CC1` yielded a melting point of 188 to 189 °C.
Compound `CS(=O)Cc1ccc(Cl)nc1` (stereo not given) has a melting point of 72 to 74 °C.
Compound `CC(C)(C)OC(=O)N1CCN(c2cccc3c(Sc4ccccc4)c[nH]c23)CC1` has a melting point of 165 to 166 °C.
Work on `O=P(O)(O)Cc1ccc(-c2ccc(CP(=O)(O)O)cc2)cc1` yielded a melting point of 114 °C.
Compound `COC(=O)C1=C(C)NC(N)=C(C#N)C1c1ccc(C(F)(F)F)cc1` (stereo not given) has a melting point of 210 to 214 °C.
`Cc1cn(-c2ccc(NC(=O)c3ccc(Cl)c(C#Cc4ccc(NC(C)C)nn4)c3)cc2C(F)(F)F)cn1` showed a melting point of 133 to 135 °C.
In the case of `COc1cc(OC)nc(OC(C(=O)O)C(C)(Oc2ccccc2)c2ccccc2)n1` (stereo not given), the melting point was 50 to 55 °C.
`Brc1ccc2c3c(cccc13)C(NCCCCCCCCCCn1ccnc1)=N2` gave a melting point of 115 to 116 °C.
`CN(C)CCN(C)c1ccc2nnc(-c3cnc([N+](=O)[O-])n3C)n2n1` gave a melting point of 196 to 198 °C.
For `Cc1cc(C)c(OC(=O)NC2CC2c2ccc(-c3ncn(-c4ccc(OC(F)(F)F)cc4)n3)cc2)c(C)c1` (stereo not given), the melting point was 199 to 202 °C.
With `Cc1ccc2c(c1)CN1CCCC1C(=O)N2C` (stereo not given) the melting point was 80 to 82 °C.
Compound `CCCC(=O)Nc1nc(=O)n(C2OC(C)C(O)C2O)cc1F` (stereo not given) has a melting point of 156 to 157 °C.
For `CCCCCCCCCCCCS(=O)(=O)CCOc1ccc(CCC(=O)C(F)(F)F)cc1`, the melting point was 55 to 56 °C.
Compound `CC(CC(C)C1CCC2C3C(O)CC4CC(O)CCC4(C)C3CCC12C)C(=O)O` (stereo not given) has a melting point of 125 to 127 °C.
Work on `Cc1ccccc1-c1cc2cnc(N)nc2n(C)c1=O` yielded a melting point of 239 °C.
In the case of `CCC1C(c2cccnc2Cl)=NOC1(C)O` (stereo not given), the melting point was 71 °C.
Work on `CC(C)OP(C)(=O)COS(=O)(=O)c1c(Cl)cccc1C(C)C` (stereo not given) yielded a melting point of 69.5 to 70.5 °C.
For `COc1cc([N+](=O)[O-])c(CC(=O)O)c(Cl)c1O`, the melting point was 231 °C.
With `O=CNNC(=O)N1Cc2ccccc2Oc2ccc(Cl)cc21` the melting point was 177 to 181 °C.
`O=C(NC1CCCCC1)N[C@H]1C[C@H](C(=O)O)Nc2cc(Cl)cc(Cl)c21` (relative stereo) gave a melting point of 217 to 219 °C.
Work on `Oc1ncnc2cnc(NC3CC3)nc12` yielded a melting point of over 240 °C.
In the case of `O=C1c2ccccc2C(O)N1c1cccc(C(F)(F)F)c1` (stereo not given), the melting point was 202 °C.
With `O=C1C=C(NC(=O)C(=O)c2cn(Cc3ccc(Cl)cc3)c3ccccc23)CS1` the melting point was 248 to 250 °C.
`COc1cc2ncnc(N3c4ccccc4CC3C)c2cc1OC` (stereo not given) showed a melting point of 154 to 156 °C.
`c1ccc(-c2ccc(-c3cnc(-c4ccccc4)[nH]3)cn2)cc1` showed a melting point of 206 °C.
In the case of `COC(=O)c1c(CC(C)C)nc2ccc(Cl)cc2c1-c1ccccc1`, the melting point was 111 to 112 °C.
`CCCCCCOc1ccc2nc(-c3ccc(COC(CCCCCC)C(F)(F)F)cc3)sc2c1` (stereo not given) gave a melting point of 69.1 °C.
With `CCCCCCCCSc1nc2cc(Cl)ccc2[nH]1` the melting point was 66 to 67 °C.
Compound `C[C@@H](c1ccc(-c2ccc(C#N)cn2)cc1)N1CC[C@](CC(C)(C)O)(c2ccccc2)OC1=O` has a melting point of 160 to 162 °C.
Work on `COCc1c(-c2ccon2)ncc2[nH]c3ccc(OCc4ccccc4)cc3c12` yielded a melting point of 123 to 126 °C.
For `NNC(=O)NCCS(=O)(=O)O`, the melting point was 212 to 215 °C.
In the case of `CCc1ccc2c(c1)CCC21CCc2cc(CC)ccc21`, the melting point was 236 to 239 °C.
Work on `Cc1c(SCCCn2c([N+](=O)[O-])cnc2C)ccnc1CSc1ncccn1` yielded a melting point of 141 to 143 °C.
With `CCOC(=O)c1cn(CC)c2c(F)c(C(=O)C=CN(C)C)c(F)cc2c1=O` the melting point was 175 to 177 °C.
Work on `NC(=O)Cn1cc(-c2ccccc2)c2cc(Cl)ccc21` yielded a melting point of 220 to 221 °C.
For `Nc1nccc(C=Cc2ccc([N+](=O)[O-])cc2)n1`, the melting point was 214 to 216 °C.
Work on `Cc1ccc(C(=O)Nc2c(NC(=O)CN3CCN(CCO)CC3)ccc3c2C(=O)c2ccccc2C3=O)cc1` yielded a melting point of 210 to 211 °C.
For `CCc1nc(CO)c(CO)[nH]1`, the melting point was 173 to 174 °C.
Work on `CCCCN(N)C(=O)NC` yielded a melting point of 48 to 50 °C.
For `CCC1(N2C(=O)c3c(F)c(F)c(F)c(F)c3C2=O)C(=O)NC(=O)N(c2ccccc2)C1=O` (stereo not given), the melting point was 218 to 220 °C.
Work on `O=Cc1ccc2c(c1)C=C(C(=O)O)C(C(F)(F)F)O2` (stereo not given) yielded a melting point of 211 to 216 °C.
`CCSc1ccc(C(=O)O)nc1SCC` showed a melting point of 112 to 113 °C.
Work on `COc1ccc2[nH]c3c(c2c1)CCC(NC(C)=O)C3` (stereo not given) yielded a melting point of 191 to 193 °C.
With `Fc1cc(OC2CCOCC2)c2c(Nc3c(Cl)ccc4c3OCO4)ncnc2c1` the melting point was 209 to 212 °C.
`Cc1ccc2c(c1)CC(N1CCN(CCN3CCOC3=O)CC1)c1cc(Cl)ccc1S2` (stereo not given) gave a melting point of 174 to 175 °C.
Work on `CC(=O)Nc1ccc(-c2ccoc2)cc1[N+](=O)[O-]` yielded a melting point of 152 to 154 °C.
`Cn1cc(OS(C)(=O)=O)c(=O)c2ccc(C#N)cc21` showed a melting point of 268 °C.
For `CNC(NCCSCc1[nH]cnc1C)=C(C#N)C#N`, the melting point was 133 to 135 °C.
With `NNC(=O)CC1(O)c2ccccc2C=Cc2ccccc21` the melting point was 192 to 194 °C.
Compound `NC(=O)C1=CC=CNC=C1` has a melting point of 167 to 171 °C.
Compound `Cc1ccc(COC(=O)C(=O)OCc2ccc(C)cc2)cc1` has a melting point of 100 °C.
For `COc1cc(CCNC=O)cc2c1OCO2`, the melting point was 108 to 110 °C.
`CC(=NO)c1cccc(C(F)(F)F)c1` showed a melting point of 63 to 65 °C.
